According to patent publication US20200079801A1, “TRISUBSTITUTEDSILYLBENZYLBENZIMIDAZOLES AND ANALOGUES” (Bayer Aktiengesellschaft, priority 2017, published 2020):

Legend:
Alternaria alternate = experiment: In vitro cell test on Alternaria alternate; format: cell-based; details: 120 h, 20 ppm of active ingredient, 5 days incubation, spectrometric measurement of mycelium growth, read-out: efficacy (inhibition of fungal growth)
Procedure: Example B: In Vitro Cell Test on Alternaria alternate Solvent: dimethyl sulfoxide Culture medium: 14.6 g anhydrous D-glucose (VWR), 7.1 g mycological peptone (Oxoid), 1.4 g granulated yeast extract (Merck), […] Inoculum: spore suspension The tested compounds were solubilized in dimethyl sulfoxide and the solution used to prepare the required range of concentrations. […] A spore suspension of Alternaria alternate was prepared and diluted to the desired spore density. Compounds were evaluated for their ability to inhibit spore germination and mycelium growth in liquid culture assay. The compounds were added in the desired concentration to the culture medium with spores. After 5 days incubation, fungi-toxicity of compounds was determined by spectrometric measurement of mycelium growth. Inhibition of fungal growth was determined by comparing the absorbance values in wells containing the compounds with the absorbance in control wells without fungicides.

[1] = for logP: HPLC, C 18 reversed phase, 40° C., 0.1% aqueous formic acid and acetonitrile, gradient 10% to 95% acetonitrile
Procedure: temperature: 40° C.; mobile phases: 0.1% aqueous formic acid and acetonitrile; linear gradient from 10% acetonitrile to 95% acetonitrile;
Calibration was carried out using unbranched alkan-2-ones (comprising 3 to 16 carbon atoms) with known logP values (determination of the logP values by the retention times using linear interpolation between two successive alkanones). lambda-max-values were determined using UV-spectra from 200 nm to 400 nm and the peak values of the chromatographic signals.

Pyricularia oryzae = experiment: microbe, parasite or virus in culture; format: cell-based; details: 120 h, read-out: efficacy (inhibition of fungal growth)
[2] = tested on: Colletotrichum lindemuthianum; experiment: In vitro cell test on Colletotrichum lindemuthianum; format: cell-based; details: 144 h, 20 ppm of active ingredient, 6 days incubation, spectrometric measurement of mycelium growth, read-out: efficacy (inhibition of fungal growth)
Procedure: Example C: In Vitro Cell Test on Colletotrichum lindemuthianum Solvent: dimethyl sulfoxide Culture medium: 14.6 g anhydrous D-glucose (VWR), 7.1 g mycological peptone (Oxoid), 1.4 g granulated yeast extract (Merck), QSP 1 liter Inoculum: spore suspension The tested compounds were solubilized in dimethyl sulfoxide and the solution used to prepare the required range of concentrations. […] A spore suspension of Colletotrichum lindemuthianum was prepared and diluted to the desired spore density. Compounds were evaluated for their ability to inhibit spores germination and mycelium growth in liquid culture assay. The compounds were added in the desired concentration to the culture medium with spores. After 6 days incubation, fungi-toxicity of compounds was determined by spectrometric measurement of mycelium growth. Inhibition of fungal growth was determined by comparing the absorbance values in wells containing the compounds with the absorbance in control wells without fungicides.

Compound: C[Si](C)(c1ccccc1)c1ccccc1Cn1cnc2ccccc21 [I.01, 1-{2-[dimethyl(phenyl)silyl]benzyl}-1H-benzimidazole]
- inhibition at 20 ppm (Alternaria alternate): 80 to 89%
- chromatographic logP [1]: 2.57
- inhibition at 20 ppm (Pyricularia oryzae): 90 to 100%
- inhibition at 20 ppm [2]: 90 to 100%

Compound: C[Si](C)(c1ccc(-c2ccccc2)cc1)c1ccccc1Cn1cnc2ccccc21 [I.40]
- logP [1]: 3.39

Compound: Cc1nc2ccccc2n1Cc1ccccc1[Si](C)(C)c1ccc(-c2ccccc2)cc1 [I.46]
- logP [1]: 3.18

Compound: Cc1cc2ncn(Cc3ccccc3[Si](C)(C)c3ccc(-c4ccccc4)cc3)c2cc1C [I.48]
- logP [1]: 3.33

Compound: Cc1cc2nc(C)n(Cc3ccccc3[Si](C)(C)c3ccc(-c4ccccc4)cc3)c2cc1C [I.53]
- logP [1]: 3.29
